Measurements taken from US20230393140A1, “BINDING ASSAYS INVOLVING A PLURALITY OF SYNTHETIC COMPOUNDS, TARGETS, AND COUNTER TARGETS” (SRI International, priority 2020, published 2023).
Where two headings read alike, the source gives them in different places. Numbered stars: 1 amine (or outer) side, 2 acyl side, 3 side chain; on linkers, the order of the positions; unused ones are H or OH. Square brackets hold non-standard residues; d marks the D form. Peptide text beside a SMILES is read from it. * marks the point of attachment. 5FAM = O=C1OC2(c3ccc(O)cc3Oc3cc(O)ccc32)c2ccc(C(=O)*)cc21; NHCH2C6H4(4-CH2CONH2) = NC(=O)Cc1ccc(CN*)cc1; X1 = O=C(Cc1ccc(CN[*:1])cc1)[*:2]

Experiments:
cRaf/K-Ras (G12V) PPI = target: T1, cRaf/K-Ras (G12V) PPI (Homo sapiens, UniProt P01116, G12V); experiment: K-Ras-cRaf HTRF-based PPI profiling; assay type: biochemical; conditions: for blank corrected HTRF: raw data, compounds without fluorescein;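 as to blank corrected HTRF: background is the signal of wells with all components except cRaf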
T1 construct: b-Kras G12V (GppNHp) (aa 2-169); biotin (b-
Procedure: In some experimental embodiments, a buffer was added to the assay wells which included […] HEPES pH 7.4, 150 mM NaCl, 5 mM MgCl2, 1 mM DTT, 0.005% NP40, and 1% DMSO. 5 uL of 3×K-Ras protein was then added to the assay wells, followed by the synthetic compounds which were added using acoustic technology (ECHO, Labcyte) followed by thirty minutes incubation at room temperature. Afterwards, 5 uL of 3×cRaf protein was added to the assay wells and 5 uL of detection mix was then added to the assay wells after 30 minutes. The detection mix included Mab anti-GST-Tb cryptate (Cisbio 61GSTTLB) and streptavidin-XL665 (Ex/Em=(337/665; 620) in PHERAstar (BMG Labtech)). HTRF signal was measured […] later.
The data includes raw data (signal-background without cRaf protein but with all other component), % binding (relative to DMSO controls), and curve fits. Curve fits were performed when the activities at the highest concentration of the synthetic compounds were less than 65%. Tables 18A-18B below includes the raw data (e.g., blank corrected HTRF) and Tables 19A-19B includes the % binding.

K-Ras = target: T2, K-Ras (Homo sapiens, UniProt P01116, G12V); experiment: MST binding affinity of resynthesized NNP hits to K-Ras
T2 construct: purchased Cytoskeleton Inc. CS-RS04
Procedure: Loading was performed according to the following protocol: The 200 μM stock solution of the target protein was diluted to 10 μM in 20 mM HEPES pH 8.0, 150 mM NaCl, 10 mM MgCl2, 1 mM TCEP, 0.05% Tween-20 (total volume 110 μL). 10 μL were set aside for later labeling quality control. EDTA pH 8.0 (stock concentration 10 mM) was added to the protein solution to a final concentration of 80 μM. GTP (stock concentration 50 mM) was added to the protein solution to a final concentration of 750 μM. The solution was incubated at 30° C. for 2 hours (PCR tube) and then placed on ice for 2 minutes. MgCl2 was added to the protein solution to a final concentration of 100 mM. The resulting protein solution was buffer exchanged into the buffer required in the labeling kit for labeling. […] All the other target molecules (TNFα, IL-6, IL-6R and ASGPR) were used as received without any additional treatment.
Hit binding affinity to various targets were determined using Microscale Thermophoresis (MST). MST experiments were performed on a Monolith NT.115pico (NanoTemper Technologies GmbH, Munich, Germany). Measurements were performed at room temperature, in triplicate with incubation periods of 15, 30 and 45 minutes. […] Targets were labeled using Nanotemper Monolith 2nd Generation Protein Labeling Kits. RED-MALEIMIDE (Maleimide-647-dye) labeling kit was used for K-Ras and RED-NHS (NHS-647-dye) labeling kit was used for IL-6, IL-6R, TNFα and ASGPR. The buffer for the ASGPR contained 20 mM HEPES pH 7.4, 150 mM NaCl, 10 mM MgCl2, 2 mM CaCl2, 0.05% Pluronic F-127, and 1 mM DTT; for IL-6 contained 20 mM HEPES pH 7.4, 150 mM KCl, 10 mM MgCl2, and 0.1% Pluronic F-127; for the soluble IL-6 receptor 20 mM HEPES pH 7.4, 150 mM NaCl, 10 mM MgCl2, and 0.05% Tween-20; for K-Ras 20 mM HEPES pH 7.4, 150 mM NaCl, 10 mM MgCl2, 0.05% Tween-20 and 1 mM DTT; for TNFα 10 mM HEPES pH 7.4, 150 mM NaCl, 10 mM MgCl2, 0.05% Polysorbate-20. Triplicate data was analyzed using MO.AffinityAnalysis software (NanoTemper Technologies GmbH).

[1] = read-out: KD (nM) [95% conf. int], MST, NNP1 library hit, target K-Ras, one-site binding model

CC(C)[C@H](NC(=O)[C@@H](Cc1ccc(O)cc1)NC(=O)[C@@H](Cc1c[nH]cn1)NC(=O)[C@H]1CCCN1C(=O)[C@@H](Cc1c[nH]c2ccccc12)NC(=O)c1ccc2c(c1)C(=O)OC21c2ccc(O)cc2Oc2cc(O)ccc21)C(=O)NCc1ccc(CC(=O)NCC(=O)N[C@@H](C(=O)N2CCC[C@@H]2C(=O)N[C@H](CCCNC(=N)N)C(=O)N[C@@H](C)C(=O)NCc2ccc(CC(=O)N3CCC[C@@H]3C(=O)N[C@H](CO)C(=O)N[C@H](CCC(=O)O)C(=O)N[C@H](CCCNC(=N)N)C(=O)NCC(=O)NCc3ccc(CC(=O)N4CCC[C@@H]4C(=O)N[C@H](CCCCN)C(=O)N[C@H](Cc4ccc(O)cc4)C(=O)N[C@H](CCCNC(=N)N)C(=O)N[C@@H](Cc4ccccc4)C(=O)NCc4ccc(CC(=O)N[C@H](CO)C(=O)N[C@H](CO)C(=O)NCC(=O)N[C@H](CC(N)=O)C(=O)N[C@@H](Cc5ccccc5)C(=O)NCc5ccc(CC(=O)NCC(=O)N[C@H](Cc6c[nH]c7ccccc67)C(=O)N[C@H](Cc6c[nH]cn6)C(=O)N[C@H](CCCNC(=N)N)C(=O)N[C@@H](C)C(=O)NCc6ccc(CC(N)=O)cc6)cc5)cc4)cc3)cc2)C(C)C)cc1 [KRAS-1-1] (5FAM-[dW][dP][dH][dY]V[X1]G[dV][dP][dR]A[X1][dP][dS][dE][dR]G[X1][dP][dK][dY][dR]F[X1][dS][dS]G[dN]F[X1]G[dW][dH][dR]A-{NHCH2C6H4(4-CH2CONH2)})
HillSlope (cRaf/K-Ras (G12V) PPI; curve fit of % binding, K-Ras G12V 30 nM, GST-cRaf 10 nM): −0.7155
blank corrected HTRF (cRaf/K-Ras (G12V) PPI; conc. 1.00E−05): 4849
blank corrected HTRF (cRaf/K-Ras (G12V) PPI; conc. 1.11E−06): 6589
blank corrected HTRF (cRaf/K-Ras (G12V) PPI; conc. 1.23E−07): 12756
blank corrected HTRF (cRaf/K-Ras (G12V) PPI; conc. 1.37E−08): 14500
blank corrected HTRF (cRaf/K-Ras (G12V) PPI; conc. 3.33E−06): 5282
blank corrected HTRF (cRaf/K-Ras (G12V) PPI; conc. 3.70E−07): 11981
blank corrected HTRF (cRaf/K-Ras (G12V) PPI; conc. 4.12E−08): 14675
blank corrected HTRF (cRaf/K-Ras (G12V) PPI; conc. 5.08E−10): 13672
Kd (K-Ras; K-Ras, compound with fluorescein on N-term, read-out: KD[nM] in MST (with fluorescein on N-term)): 24 nM
Kd (K-Ras; [1]): 24 nM

CC(C)[C@H](NC(=O)[C@@H](Cc1c[nH]c2ccccc12)NC(=O)[C@H]1CCCN1C(=O)[C@@H](Cc1c[nH]cn1)NC(=O)[C@@H](Cc1ccc(O)cc1)NC(=O)c1ccc2c(c1)C(=O)OC21c2ccc(O)cc2Oc2cc(O)ccc21)C(=O)NCc1ccc(CC(=O)NCC(=O)N[C@H](CCCCN)C(=O)N[C@H](Cc2c[nH]cn2)C(=O)N[C@H](CC(N)=O)C(=O)N[C@@H](Cc2ccccc2)C(=O)NCc2ccc(CC(=O)N3CCC[C@@H]3C(=O)N[C@H](CO)C(=O)N[C@H](CCC(=O)O)C(=O)N[C@H](CCCNC(=N)N)C(=O)NCC(=O)NCc3ccc(CC(=O)N4CCC[C@@H]4C(=O)N[C@H](CCCCN)C(=O)N[C@H](Cc4ccc(O)cc4)C(=O)N[C@H](CCCNC(=N)N)C(=O)N[C@@H](Cc4ccccc4)C(=O)NCc4ccc(CC(=O)N5CCC[C@@H]5C(=O)NCC(=O)N[C@H](CCCNC(=N)N)C(=O)N[C@H](Cc5c[nH]c6ccccc56)C(=O)NCC(=O)NCc5ccc(CC(=O)N[C@H](Cc6ccc(O)cc6)C(=O)N6CCC[C@@H]6C(=O)N[C@H](CCCNC(=N)N)C(=O)N[C@H](CCC(=O)O)C(=O)NCC(=O)NCc6ccc(CC(N)=O)cc6)cc5)cc4)cc3)cc2)cc1 [KRAS-1-11] (5FAM-[dY][dH][dP][dW]V[X1]G[dK][dH][dN]F[X1][dP][dS][dE][dR]G[X1][dP][dK][dY][dR]F[X1][dP]G[dR][dW]G[X1][dY][dP][dR][dE]G-{NHCH2C6H4(4-CH2CONH2)})
Kd (K-Ras; [1]): 60 nM

CC(C)C[C@H](NC(=O)[C@@H](CCCNC(=N)N)NC(=O)[C@@H](CCCCN)NC(=O)[C@@H](CCC(=O)O)NC(=O)[C@@H](Cc1ccccc1)NC(=O)Cc1ccc(CNC(=O)[C@H](Cc2ccccc2)NC(=O)[C@@H](CO)NC(=O)[C@@H](CCC(=O)O)NC(=O)[C@H]2CCCN2C(=O)[C@@H](CC(C)C)NC(=O)c2ccc3c(c2)C(=O)OC32c3ccc(O)cc3Oc3cc(O)ccc32)cc1)C(=O)NCc1ccc(CC(=O)N2CCC[C@@H]2C(=O)N[C@H](CO)C(=O)N[C@H](CCC(=O)O)C(=O)N[C@H](CCCNC(=N)N)C(=O)NCC(=O)NCc2ccc(CC(=O)N3CCC[C@@H]3C(=O)N[C@H](CCCCN)C(=O)N[C@H](Cc3ccc(O)cc3)C(=O)N[C@H](CCCNC(=N)N)C(=O)N[C@@H](Cc3ccccc3)C(=O)NCc3ccc(CC(=O)N4CCC[C@@H]4C(=O)NCC(=O)N[C@H](CCCNC(=N)N)C(=O)N[C@H](Cc4c[nH]c5ccccc45)C(=O)NCC(=O)NCc4ccc(CC(=O)NCC(=O)N[C@H](Cc5c[nH]c6ccccc56)C(=O)N[C@H](Cc5c[nH]cn5)C(=O)N[C@H](CCCNC(=N)N)C(=O)N[C@@H](C)C(=O)NCc5ccc(CC(N)=O)cc5)cc4)cc3)cc2)cc1 [KRAS-1-12] (5FAM-[dL][dP][dE][dS]F[X1][dF][dE][dK][dR]L[X1][dP][dS][dE][dR]G[X1][dP][dK][dY][dR]F[X1][dP]G[dR][dW]G[X1]G[dW][dH][dR]A-{NHCH2C6H4(4-CH2CONH2)})
Kd (K-Ras; [1]): 24 nM

CC(C)C[C@H](NC(=O)[C@@H](CCCNC(=N)N)NC(=O)[C@@H](CCCCN)NC(=O)[C@@H](CCC(=O)O)NC(=O)[C@@H](Cc1ccccc1)NC(=O)Cc1ccc(CNC(=O)[C@@H](NC(=O)[C@@H](Cc2ccc(O)cc2)NC(=O)[C@@H](Cc2c[nH]cn2)NC(=O)[C@H]2CCCN2C(=O)[C@@H](Cc2c[nH]c3ccccc23)NC(=O)c2ccc3c(c2)C(=O)OC32c3ccc(O)cc3Oc3cc(O)ccc32)C(C)C)cc1)C(=O)NCc1ccc(CC(=O)N2CCC[C@@H]2C(=O)N[C@H](CO)C(=O)N[C@H](CCC(=O)O)C(=O)N[C@H](CCCNC(=N)N)C(=O)NCC(=O)NCc2ccc(CC(=O)N3CCC[C@@H]3C(=O)N[C@H](CCCCN)C(=O)N[C@H](Cc3ccc(O)cc3)C(=O)N[C@H](CCCNC(=N)N)C(=O)N[C@@H](Cc3ccccc3)C(=O)NCc3ccc(CC(=O)N4CCC[C@@H]4C(=O)NCC(=O)N[C@H](CCCNC(=N)N)C(=O)N[C@H](Cc4c[nH]c5ccccc45)C(=O)NCC(=O)NCc4ccc(CC(=O)N[C@H](Cc5c[nH]cn5)C(=O)N[C@H](Cc5ccc(O)cc5)C(=O)N[C@H](CO)C(=O)N[C@H](CCC(=O)O)C(=O)N[C@@H](Cc5ccccc5)C(=O)NCc5ccc(CC(N)=O)cc5)cc4)cc3)cc2)cc1 [KRAS-1-15] (5FAM-[dW][dP][dH][dY]V[X1][dF][dE][dK][dR]L[X1][dP][dS][dE][dR]G[X1][dP][dK][dY][dR]F[X1][dP]G[dR][dW]G[X1][dH][dY][dS][dE]F-{NHCH2C6H4(4-CH2CONH2)})
Kd (K-Ras; [1]): 180 nM
